In patent EP3355943B1, “METHODS AND SYSTEMS FOR TREATING MEDICAL DEVICES AND FLUIDS” (Ethicon, Inc., priority 2015, dated 2017):
Where “and” joins values, the source holds several entries; their conditions need not be identical. Identical values can stand only once.

What was measured:
Format in all cases: biochemical
[1] = Detection of LPS after adding CaSt powder to water spiked with LPS (Kinetic Chromogenic Method for Endotoxin Quantitation)
Procedure: Water and aqueous solutions (containing LPS with various sources of endotoxin) were exposed to calcium stearate [CaSt] […] 5 mL of water solution of known endotoxin concentration (generated by spiking endotoxin-free water with water solution of known endotoxin concentration) was added to the each test tube, vortexed vigorously (1 minute) using Fisher Scientific Digital Vortex Mixer, and then placed in a warm water bath (37°C) for 1 hour. After 1 hour, the tubes were removed from warm water bath and vortexed vigorously (1 minute). Sterile syringes with needles were used to extract the solution without removing the calcium stearate. This solution was then tested for endotoxin levels. Kinetic Chromogenic Method for Endotoxin Quantitation, using Endosafe MCS Multi Cartridge System by Charles River Laboratories, Charleston S.C.

[2] = Suture testing in aqueous suspension of CaSt: endotoxin detected on LPS-contaminated suture
Procedure: Treatment of sutures in aqueous suspensions of CaSt was performed as follows: Suture used was VICRYL® (Polyglactin 910) suture made of a copolymer made from 90% glycolide and 10% L-lactide, Size 1, 27 inch pieces. […] Endosafe LAL Reagent Water (LRW) was used, manufactured by Charles River Laboratories, Charleston S.C..
Eight strands of suture were placed in tubing with LPS (endotoxin) solution for 10 minutes at a time. The sutures were dried for 20 minutes and then placed in round bottom tubes. Suspensions of 5% by weight CaSt in LAL Reagent Water were prepared. (0.5 g CaSt in 10 mL LRW). One suture was placed in each tube and vortexed in this solution for approximately 10 seconds. The sutures were removed and allowed to dry for 20 minutes and then placed in round bottom tubes. This was done for 3 sutures. Three pieces of suture, serving as the control, were not submerged in any solutions and placed in test tubes. 3 mL of LAL reagent water was added to each test tube, vortexed vigorously for 1 minute, and then placed in a hot water bath at 37°C for 1 hour. They were then removed, vortexed vigorously for 1 minute, diluted, and tested on the MCS system. […] These were also tested for endotoxin on the MCS. Table 4. Detection of LPS after adding CaSt to test tubes containing water spiked with LPS

[3] = Suture testing in ethyl acetate containing CaSt: detection of LPS on suture; details: LPS-contaminated suture submerged in Ethyl Acetate w/ 5% Calcium Stearate, vortexed 10 seconds
Procedure: An absorbable VICRYL® (Polyglactin 910) suture (Size 1, Length: 27in) made of a copolymer made from 90% glycolide and 10% L-lactide was exposed to a solution containing LPS (endotoxin) (9 Strands of Vicryl suture were immersed in tubing with endotoxin solution (SRW, Concentration: 3980 EU/mL) for 10 minutes at a time at ambient temperature. The sutures were air dried for 20 minutes in a vented chemical hood and then placed in round bottom and dried The suture was then immersed into Ethyl Acetate (EtAc) containing CaSt, vortexed briefly for 10 seconds, dried for 20 minutes in a vented chemical hood, and extracted in endotoxin free water at ambient temperature. The suture extracted in endotoxin free water (LRW) was then tested for LPS using the Kinetic Chromogenic Method for Endotoxin Quantitation, Charles River Laboratories, Charleston S.C.

[4] = Detection of LPS in water in presence of CaSt and EDTA and Tween 20; details: 5mL, 8330 EU spiked; for Percent detected Endotoxin: 60 min
Procedure: Further testing was performed with addition of EDTA and Polysorbate 20 reagents to verify permanent removal of LPS/endotoxin activity, by adding EDTA and Polysorbate 20 to the extraction solutions to test for potential recovery of endotoxin activity when introduced to these two substances.
The testing was performed in aqueous solutions with added EDTA and Polysorbate 20, with suspended CaSt present in some solutions in varying quantities. […] The tubes were vortexed for 1 minute and placed in a 37C bath for 1 hour. The tubes were removed from the bath and again vortexed for 1 minute. The solutions were diluted and tested for endotoxin using the Kinetic Chromogenic Method for Endotoxin Quantitation, Charles River Laboratories, Charleston S.C. […] These samples were rigorously vortexed and tested using the Kinetic Chromogenic Method for Endotoxin Quantitation, Charles River Laboratories, Charleston S.C. […]

[5] = Testing of various sources of LPS: detection of LPS after adding CaSt to spiked water
Procedure: Therefore, for the methods described above, the activity of endotoxin was tested with various sources of endotoxin. Laboratory grown endotoxin is purified while natural endotoxin will be present with other substances such as proteins and phospholipids.
The laboratory grown endotoxin used in this experiment was supplied by Charles River Laboratories.
Natural airborne endotoxin was captured using an electret filter. Electret filters are produced from dielectric polymer fibers that develop an electrical charge when air flows past them, capturing the endotoxin along with other particles. The endotoxin was extracted from the filter by placing the filter in endotoxin free water for an extended period of time.
Two other natural sources of endotoxin were obtained from water samples in the surrounding environment. One source was a pool of sitting rain water and other being a small puddle on the side of the Raritan River. The sitting rain water (SRW) was purified via chlorination and 0.2 µm filter. The Raritan River Water (RRW) was not altered in anyway. The same testing procedure was conducted for all sources of endotoxin.
Table 11. Detection of LPS after adding CaSt to test tubes containing water spiked with LPS

[6] = 0.0027 g CaSt in 5 ml water, 14,400 EU spiked
[7] = 0.0108 g CaSt in 5 ml water, 14,400 EU spiked
[8] = 0.0518 g CaSt in 5 ml water, 14,400 EU spiked
[9] = 0.2502 g CaSt in 5 ml water, 14,400 EU spiked
[10] = CaSt powder 0.254 g (sample 1), 0.2607 g (sample 2) in 5 ml water, 14,400 EU spiked, 0.254 g CaSt powder added
[11] = CaSt powder 0.254 g (sample 1), 0.2607 g (sample 2) in 5 ml water, 14,400 EU spiked, 0.2607 g CaSt powder added
[12] = Weight of Calcium Stearate 0.007 g
[13] = Weight of Calcium Stearate 0.018 g
[14] = Weight of Calcium Stearate 0.028 g
[15] = Charles River Standard, 0.018 g Calcium Stearate, 8330 EU spiked
[16] = Charles River Standard, 0.05 g Calcium Stearate, 8330 EU spiked
[17] = Charles River Standard, 0.15 g Calcium Stearate, 8330 EU spiked
[18] = Charles River Standard, 0.25 g Calcium Stearate, 8330 EU spiked
[19] = Dust Filter Extraction Water, 0.01 g Calcium Stearate, 9280 EU spiked
[20] = Dust Filter Extraction Water, 0.25 g Calcium Stearate, 9280 EU spiked
[21] = RRW, 0.01 g Calcium Stearate, 4340 EU spiked
[22] = RRW, 0.1 g Calcium Stearate, 4340 EU spiked
[23] = RRW, 0.25 g Calcium Stearate, 4340 EU spiked
[24] = SRW, 0.01 g Calcium Stearate, 11100 EU spiked

Compound: CCCCCCCCCCCCCCCCCC(=O)O [Calcium Stearate]
- Endotoxin Detected (EU) [1, 6]: 11,055 EU
- Percent of detected Endotoxin vs. initial concentration [1, 6]: 77% and 76.77%
- Endotoxin Detected (EU) [1, 7]: 2,925 EU
- Percent of detected Endotoxin vs. initial concentration [1, 7]: 20% and 20.31%
- Endotoxin Detected (EU) [1, 8]: 9.4 EU
- Percent of detected Endotoxin vs. initial concentration [1, 8]: 0.07%
- Endotoxin Detected (EU) [1, 9]: 26.7 EU
- Percent of detected Endotoxin vs. initial concentration [1, 9]: 0.19%
- Percent of detected Endotoxin vs. initial concentration ([1]; CaSt powder 0.252/0.258/0.272/0.267 g (samples 1-4) in 5 ml water, 5.208 EU spiked, 37°C 1 hour, 0.252 g CaSt powder added): <2.88%
- Percent of detected Endotoxin vs. initial concentration ([1]; CaSt powder 0.252/0.258/0.272/0.267 g (samples 1-4) in 5 ml water, 5.208 EU spiked, 37°C 1 hour, 0.258 g CaSt powder added): <8.06%
- Percent of detected Endotoxin vs. initial concentration ([1]; CaSt powder 0.252/0.258/0.272/0.267 g (samples 1-4) in 5 ml water, 5.208 EU spiked, 37°C 1 hour, 0.267 g CaSt powder added): <3.46%
- Endotoxin Detected (EU) [1, 10]: 12.1 EU
- Percent of detected Endotoxin vs. initial concentration [1, 10]: 0.08%
- Endotoxin Detected (EU) [1, 11]: 10.3 EU
- Percent of detected Endotoxin vs. initial concentration [1, 11]: 0.07%
- Endotoxin Detected (EU) ([2]; Water with 5% Calcium Stearate solution tested after suture removal (samples 4-6)): <1.0 EU
- Average Endotoxin Detected (EU) ([2]; suture submerged in LAL Water w/ 5% Calcium Stearate, samples 4-6): 3.27 EU
- Average Change in Endotoxin Level (%) ([2]; suture submerged in LAL Water w/ 5% Calcium Stearate, vs. sutures not submerged (84 EU)): -96.1%
- Endotoxin Detected (EU) [3]: 23.4 EU and 21.78 EU and 25.62 EU
- Endotoxin Detected (EU) [4, 12]: 3995 EU
- Percent detected Endotoxin [4, 12]: 48.0%
- Endotoxin Detected (EU) [4, 13]: 1487.5 EU
- Percent detected Endotoxin [4, 13]: 17.9%
- Endotoxin Detected (EU) [4, 14]: 235 EU
- Percent detected Endotoxin [4, 14]: 2.8%
- percent of endotoxin recovered ([5]; 0.1 grams of calcium stearate and higher, all sources of endotoxin): under 5%
- Endotoxin Detected (EU) ([5]; Charles River Standard, 0.007 g Calcium Stearate, 8330 EU spiked): 3995 EU
- Endotoxin Detected (EU) [5, 15]: 1487.5 EU
- Percent of Endotoxin Detected [5, 15]: 17.9%
- Endotoxin Detected (EU) ([5]; Charles River Standard, 0.028 g Calcium Stearate, 8330 EU spiked): 235 EU
- Endotoxin Detected (EU) [5, 16]: 190.5 EU
- Percent of Endotoxin Detected [5, 16]: 2.3%
- Endotoxin Detected (EU) [5, 17]: 86.5 EU
- Percent of Endotoxin Detected [5, 17]: 1.0%
- Endotoxin Detected (EU) [5, 18]: 38.5 EU
- Percent of Endotoxin Detected [5, 18]: 0.5%
- Endotoxin Detected (EU) [5, 19]: 3440 EU
- Percent of Endotoxin Detected [5, 19]: 37.1%
- Endotoxin Detected (EU) [5, 20]: 28.5 EU
- Percent of Endotoxin Detected [5, 20]: 0.3%
- Endotoxin Detected (EU) [5, 21]: 960 EU
- Percent of Endotoxin Detected [5, 21]: 22.1%
- Endotoxin Detected (EU) [5, 22]: 165 EU
- Percent of Endotoxin Detected [5, 22]: 3.8%
- Endotoxin Detected (EU) [5, 23]: 70 EU
- Percent of Endotoxin Detected [5, 23]: 1.6%
- Percent of Endotoxin Detected ([5]; RRW, 0.35 g Calcium Stearate, 4340 EU spiked): 2.6%
- Endotoxin Detected (EU) [5, 24]: 2780 EU
- Percent of Endotoxin Detected [5, 24]: 25.0%
- Percent of Endotoxin Detected ([5]; SRW, 0.25 g Calcium Stearate, 11100 EU spiked): 1.0%
